Experimental data from article PMC8151276, “An Integrated Approach toward NanoBRET Tracers for Analysis of GPCR Ligand Engagement” (Molecules, 2021).

What was measured:
Type in all cases: binding
[1] = biological target: T1, AVPR2 (Homo sapiens, UniProt P30518); assay: NanoBRET screen HiBiT-AVPR2 in HEK293
T1 construct: purchased Promega (in-house HiBiT-GPCR construct library, NanoBRET)
Protocol: (§1) Each tracer candidate was screened across the entire library of HiBiT-GPCR constructs using NanoBRET as the detection modality. As depicted in Figure 4A, the specificity of interactions was evaluated through decrease in BRET due to competitive displacement of a bound tracer by excess parental compound. Each tracer was analyzed for binding to each HiBiT-GPCR fusion in the absence and in the presence of competing parental compound. Briefly, HEK293 cells were transfected with HiBiT-GPCR constructs diluted into promoterless DNA to reduce expression and maximize translocation to the cell surface. Each tracer candidate was then screened at concentrations of 1 μM and 0.1 μM across cells expressing these fusions. Cells were treated for 1.5 h with tracer either alone or in the presence of 20 μM competing parental compound (i.e., control). BRET was measured upon addition of purified LgBiT and subsequent complementation with HiBiT genetically fused to a GPCR. The specificity of interactions was assessed through a decrease in BRET signal due to competitive displacement of the bound tracer. To further gauge the robustness of these interactions, the fold response over the control (i.e., BRETtracer/BRETcontrol) was calculated. We chose a 1.5-fold response, which translates to ≥7-fold signal over noise as the minimal threshold required to score an interaction as positive. […]. Below we highlight the screening results obtained for our exemplary fluorescent tracers based on Clozapine, Amitriptyline and AZD1283.
(§2) HiBiT-GPCR DNA constructs were diluted in 10 mM Tris pH 8 to a final concentration of 0.01 μg/μL, arrayed in 96-well plates and stored at −20 °C. For transfection, HEK293 cells were suspended in Opti-MEM (without phenol red) supplemented with 2% fetal bovine serum (Seradigm) and 100 units/mL penicillin–streptomycin (Gibco) at a final concentration of 220,000 cells/mL and dispensed into white 96-well plates at 90 μL/well. Subsequent transfections and screens were carried using an Agilent Bravo Automated Liquid Handling Platform. First, the 96-well HiBiT DNA arrays were diluted 25-fold in Opti-MEM (without serum or phenol red) to a final concentration of 0.0004 μg/μL and 20 μL of the diluted DNAs were transferred into new 96-well plates. Next, promoterless carrier DNA (1 μg/μL) was diluted 25-fold (0.04 μg/μL) and then dispensed into the diluted arrays at 20 μL/well. Following brief mixing, Viafect transfection reagent (Promega) diluted 16-fold into Opti-MEM was dispensed into the plates at 40 μL/well. After mixing by pipetting, plates were incubated for 10 min on the pipetting station deck. The DNA-transfection reagent complexes were then added to plates containing cells. To facilitate the screen, 10 μL of DNA-transfection reagent complexes were added in duplicates to the top 4 and bottom 4 rows, resulting in two identical 48-well arrays per plate. Plates with transfected cells were incubated for 18–20 h at 37 °C/5% CO2. A screen of each tracer across the entire library using two different concentrations requires duplicate plates of transfected cells. Depending on the number of tracers being screened, transfections can be scaled up using the same ratios. The next day, for each tracer, four 20× screening solutions in tracer dilution buffer (Promega) were prepared: two duplicates at final concentration of 20 μM and two duplicates at a final concentration of 2 μM. A competing unmodified compound was added to one of each duplicate at a final concentration of 400 μM. The four resulting solutions were diluted 4-fold in Opti-MEM without serum or phenol red to generate 5× solutions (5 µM and 0.5 µM tracer +/− 100 μM competing compound). To screen the library, a BioTek MultiFlo FX liquid dispenser was used to dispense 22.5 µL of tracer solution to the top 4 rows and 22.5 µL tracer + competing compound solution to the 4 bottom rows. Plates were briefly mixed on an orbital shaker and incubated for 1.5 h at room temperature. […]

[2] = biological target: T2, GABBR1 (Homo sapiens, UniProt Q9UBS5); assay: NanoBRET screen HiBiT-GABBR1 in HEK293
T2 construct: purchased Promega (in-house HiBiT-GPCR construct library, NanoBRET)
T2 sequence (Q9UBS5 15-961 limits assumed): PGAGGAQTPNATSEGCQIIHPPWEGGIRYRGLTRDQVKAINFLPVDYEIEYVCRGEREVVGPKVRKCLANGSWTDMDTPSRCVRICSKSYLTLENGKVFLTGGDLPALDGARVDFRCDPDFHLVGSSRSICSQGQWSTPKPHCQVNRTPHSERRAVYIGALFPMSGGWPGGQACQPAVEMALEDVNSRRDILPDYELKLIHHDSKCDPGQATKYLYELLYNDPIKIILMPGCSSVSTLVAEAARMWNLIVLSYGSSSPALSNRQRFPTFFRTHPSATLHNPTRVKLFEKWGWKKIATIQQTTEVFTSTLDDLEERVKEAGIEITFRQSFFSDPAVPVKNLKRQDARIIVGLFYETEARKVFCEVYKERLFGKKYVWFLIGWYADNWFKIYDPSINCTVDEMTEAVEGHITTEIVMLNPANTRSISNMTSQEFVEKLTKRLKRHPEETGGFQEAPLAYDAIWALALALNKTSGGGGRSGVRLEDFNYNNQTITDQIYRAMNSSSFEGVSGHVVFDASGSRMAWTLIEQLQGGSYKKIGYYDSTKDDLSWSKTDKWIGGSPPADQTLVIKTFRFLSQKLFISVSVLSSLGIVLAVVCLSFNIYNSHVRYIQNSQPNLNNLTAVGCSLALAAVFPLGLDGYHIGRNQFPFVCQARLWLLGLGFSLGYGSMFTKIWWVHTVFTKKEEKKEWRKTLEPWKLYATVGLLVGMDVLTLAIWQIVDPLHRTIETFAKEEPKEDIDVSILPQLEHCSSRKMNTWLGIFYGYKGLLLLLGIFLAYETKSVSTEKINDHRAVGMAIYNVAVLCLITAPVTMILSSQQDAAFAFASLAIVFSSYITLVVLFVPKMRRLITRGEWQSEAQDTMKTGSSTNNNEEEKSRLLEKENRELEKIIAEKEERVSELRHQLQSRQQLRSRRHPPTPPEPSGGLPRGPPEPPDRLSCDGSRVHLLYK
Protocol: as §1, §2

[3] = biological target: T3, HTR4 (Homo sapiens, UniProt Q13639); assay: NanoBRET screen HiBiT-HTR4 in HEK293
T3 construct: purchased Promega (in-house HiBiT-GPCR construct library, NanoBRET)
T3 sequence (Q13639 whole entry): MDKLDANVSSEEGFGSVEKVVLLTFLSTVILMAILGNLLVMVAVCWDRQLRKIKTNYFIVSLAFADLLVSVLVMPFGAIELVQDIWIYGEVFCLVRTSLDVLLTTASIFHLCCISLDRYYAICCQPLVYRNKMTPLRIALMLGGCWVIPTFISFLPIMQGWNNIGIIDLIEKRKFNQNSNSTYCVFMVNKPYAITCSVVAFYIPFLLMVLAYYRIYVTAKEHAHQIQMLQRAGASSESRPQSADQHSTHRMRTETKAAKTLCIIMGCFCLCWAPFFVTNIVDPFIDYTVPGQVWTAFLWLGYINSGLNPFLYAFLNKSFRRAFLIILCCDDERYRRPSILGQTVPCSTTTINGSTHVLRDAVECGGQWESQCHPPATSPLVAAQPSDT
Protocol: as §1, §2

[4] = biological target: T4, GNRHR (Homo sapiens, UniProt P30968); assay: NanoBRET screen HiBiT-GNRHR in HEK293
T4 construct: purchased Promega (in-house HiBiT-GPCR construct library, NanoBRET)
T4 sequence (P30968 1-328): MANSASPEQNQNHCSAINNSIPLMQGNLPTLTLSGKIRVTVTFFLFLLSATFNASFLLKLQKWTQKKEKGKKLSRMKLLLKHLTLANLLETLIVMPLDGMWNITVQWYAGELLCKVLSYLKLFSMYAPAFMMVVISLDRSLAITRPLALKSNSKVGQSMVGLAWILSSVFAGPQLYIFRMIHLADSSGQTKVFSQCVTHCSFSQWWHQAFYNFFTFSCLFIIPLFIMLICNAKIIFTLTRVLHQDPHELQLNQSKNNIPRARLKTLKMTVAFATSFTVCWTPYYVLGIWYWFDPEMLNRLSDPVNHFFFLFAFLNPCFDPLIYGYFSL
Protocol: as §1, §2

[5] = biological target: T5, NMUR1 (Homo sapiens, UniProt Q9HB89); assay: NanoBRET screen HiBiT-NMUR1 in HEK293
T5 construct: purchased Promega (in-house HiBiT-GPCR construct library, NanoBRET)
T5 sequence (Q9HB89 1-426): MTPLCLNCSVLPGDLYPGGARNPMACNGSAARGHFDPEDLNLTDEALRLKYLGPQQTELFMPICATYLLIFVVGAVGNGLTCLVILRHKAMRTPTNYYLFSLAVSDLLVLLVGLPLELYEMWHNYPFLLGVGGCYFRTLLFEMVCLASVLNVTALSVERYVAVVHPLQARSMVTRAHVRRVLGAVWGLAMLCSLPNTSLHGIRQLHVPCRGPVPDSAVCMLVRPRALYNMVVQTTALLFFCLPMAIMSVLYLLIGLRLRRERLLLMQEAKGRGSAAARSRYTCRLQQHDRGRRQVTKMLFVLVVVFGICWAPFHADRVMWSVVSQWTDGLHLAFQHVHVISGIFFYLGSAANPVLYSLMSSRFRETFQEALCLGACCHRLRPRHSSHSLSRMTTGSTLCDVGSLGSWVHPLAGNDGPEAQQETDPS
Protocol: as §1, §2

T1 sequence (P30518 whole entry): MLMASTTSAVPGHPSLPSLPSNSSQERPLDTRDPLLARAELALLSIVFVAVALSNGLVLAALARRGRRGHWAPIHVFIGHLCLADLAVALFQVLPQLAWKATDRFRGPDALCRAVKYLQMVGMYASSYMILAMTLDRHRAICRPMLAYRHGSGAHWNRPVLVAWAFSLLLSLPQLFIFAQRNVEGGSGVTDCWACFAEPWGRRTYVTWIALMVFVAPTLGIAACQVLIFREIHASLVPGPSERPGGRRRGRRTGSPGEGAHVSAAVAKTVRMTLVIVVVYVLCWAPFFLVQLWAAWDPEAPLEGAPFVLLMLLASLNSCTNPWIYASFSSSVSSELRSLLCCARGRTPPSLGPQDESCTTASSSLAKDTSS

SMILES	NanoBRET Fold Response ([1]; AVPR2, tracer 0.1μM)	NanoBRET Fold Response ([1]; AVPR2, tracer 1μM)	NanoBRET Fold Response ([2]; GABBR1, tracer 0.1μM)	NanoBRET Fold Response ([2]; GABBR1, tracer 1μM)	NanoBRET Fold Response ([3]; HTR4, tracer 0.1μM)	NanoBRET Fold Response ([3]; HTR4, tracer 1μM)	NanoBRET Fold Response ([4]; GNRHR, tracer 0.1μM)	NanoBRET Fold Response ([4]; GNRHR, tracer 1μM)	NanoBRET Fold Response ([5]; NMUR1, tracer 0.1μM)	NanoBRET Fold Response ([5]; NMUR1, tracer 1μM)	further results
O=C(CCc1ccc2n1[B-](F)(F)[N+]1=C(c3ccc[nH]3)C=CC1=C2)NCCOCCOCCNC(=O)OCCOCCN1CCN(C2=Nc3ccccc3Sc3ccccc32)CC1 [Quetiapine-a-2-NB590]	1.03	0.93	1.22	0.93	0.98	1.00	0.97	0.81	1.01	0.81	–
CN1CCN(C2=Nc3cc(Cl)ccc3N(CC(=O)NCCOCCOCCOCCOCCNC(=O)CCc3ccc4n3[B-](F)(F)[N+]3=C(c5ccc[nH]5)C=CC3=C4)c3ccccc32)CC1 [Clozapine-c-2-NB590]	–	–	–	–	–	–	–	–	–	–	NanoBRET Fold Response ([1]; AVPR2, 0.1μM tracer): 0.99; NanoBRET Fold Response ([1]; AVPR2, 1μM tracer): 1.00; NanoBRET Fold Response ([2]; GABBR1, 0.1μM tracer): 0.97; NanoBRET Fold Response ([2]; GABBR1, 1μM tracer): 0.89; NanoBRET Fold Response ([3]; HTR4, 0.1μM tracer): 1.02; NanoBRET Fold Response ([3]; HTR4, 1μM tracer): 1.07; NanoBRET Fold Response ([4]; GNRHR, 0.1μM tracer): 1.02; NanoBRET Fold Response ([4]; GNRHR, 1μM tracer): 0.99; NanoBRET Fold Response ([5]; NMUR1, 0.1μM tracer): 1.01; NanoBRET Fold Response ([5]; NMUR1, 1μM tracer): 1.00
COc1ccc2[nH]c(-c3ccc(CNC(=O)CCOCCOCCOCCOCCNC(=O)CCc4ccc5n4[B-](F)(F)[N+]4=C(c6ccc[nH]6)C=CC4=C5)cc3)c(CCNC(C)=O)c2n1 [AzomelatoninICO9-2-NB590]	–	–	–	–	–	–	–	–	–	–	NanoBRET Fold Response ([1]; 0.1μM tracer): 0.84; NanoBRET Fold Response ([1]; 1μM tracer): 0.87; NanoBRET Fold Response ([2]; 0.1μM tracer): 0.66; NanoBRET Fold Response ([2]; 1μM tracer): 0.57; NanoBRET Fold Response ([3]; 0.1μM tracer): 1.03; NanoBRET Fold Response ([3]; 1μM tracer): 0.95; NanoBRET Fold Response ([4]; 0.1μM tracer): 0.61; NanoBRET Fold Response ([4]; 1μM tracer): 0.98; NanoBRET Fold Response ([5]; 0.1μM tracer): 0.77; NanoBRET Fold Response ([5]; 1μM tracer): 0.91
O=C(CCOCCOCCOCCOCCNC(=O)CCc1ccc2n1[B-](F)(F)[N+]1=C(c3ccc[nH]3)C=CC1=C2)NCCCN1CCN(C2=Nc3cc(Cl)ccc3Nc3ccccc32)CC1 [Clozapine-a-2-NB590]	–	–	–	–	–	–	–	–	–	–	NanoBRET Fold Response ([1]; AVPR2, 0.1μM tracer): 1.03; NanoBRET Fold Response ([1]; AVPR2, 1μM tracer): 0.95; NanoBRET Fold Response ([2]; GABBR1, 0.1μM tracer): 0.96; NanoBRET Fold Response ([2]; GABBR1, 1μM tracer): 1.33; NanoBRET Fold Response ([3]; HTR4, 0.1μM tracer): 1.02; NanoBRET Fold Response ([3]; HTR4, 1μM tracer): 1.12; NanoBRET Fold Response ([4]; GNRHR, 0.1μM tracer): 1.02; NanoBRET Fold Response ([4]; GNRHR, 1μM tracer): 1.24; NanoBRET Fold Response ([5]; NMUR1, 0.1μM tracer): 1.14; NanoBRET Fold Response ([5]; NMUR1, 1μM tracer): 1.16
CCCn1c(=O)c2[nH]c(-c3ccc(OCC(=O)NCCNC(=O)CCOCCNC(=O)c4ccc(CNC(=O)CCc5ccc6n5[B-](F)(F)[N+]5=C(c7ccc[nH]7)C=CC5=C6)cc4)cc3)nc2n(CCC)c1=O [XAC-3-NB590]	0.73	0.91	0.86	1.00	1.03	1.09	0.94	0.98	0.91	1.00	–
O=C(CCc1ccc2n1[B-](F)(F)[N+]1=C(c3ccc[nH]3)C=CC1=C2)NCc1ccc(C(=O)NCCOCCOCCNCC(O)COc2cccc3ccccc23)cc1 (stereo not shown) [Propranolol-3-NB590]	–	–	–	–	–	–	–	–	–	–	NanoBRET Fold Response ([1]; AVPR2, 0.1μM): 1.00; NanoBRET Fold Response ([1]; AVPR2, 1μM): 1.00; NanoBRET Fold Response ([2]; GABBR1, 0.1μM): 1.10; NanoBRET Fold Response ([2]; GABBR1, 1μM): 1.05; NanoBRET Fold Response ([3]; HTR4, 0.1μM): 1.26; NanoBRET Fold Response ([3]; HTR4, 1μM): 1.41; NanoBRET Fold Response ([4]; GNRHR, 0.1μM): 1.12; NanoBRET Fold Response ([4]; GNRHR, 1μM): 1.03; NanoBRET Fold Response ([5]; NMUR1, 0.1μM): 1.01; NanoBRET Fold Response ([5]; NMUR1, 1μM): 1.00
O=C(CCc1ccc2n1[B-](F)(F)[N+]1=C(c3ccc[nH]3)C=CC1=C2)NCc1ccc(C(=O)NCCOCCC(=O)N[C@@H]2CC[C@@]3(O)[C@H]4Cc5ccc(O)c6c5[C@@]3(CCN4CC3CC3)[C@H]2O6)cc1 [Naltrexone-3-NB590]	1.30	0.97	0.93	0.49	0.97	1.05	0.90	0.99	0.85	1.07	–
N#CN=C(NCCCOc1cccc(CN2CCCCC2)c1)NCCNC(=O)CCOCCOCCOCCOCCNC(=O)CCc1ccc2n1[B-](F)(F)[N+]1=C(c3ccc[nH]3)C=CC1=C2 [Aminopotentidine-2-NB590]	1.01	1.04	1.06	1.00	0.97	1.05	1.04	0.98	1.05	0.98	–
COc1ccc2c(n1)c(CCNC(C)=O)cn2CCNC(=O)CCc1ccc2n1[B-](F)(F)[N+]1=C(c3ccc[nH]3)C=CC1=C2 [Azamelatonin-1-NB590]	–	–	–	–	–	–	–	–	–	–	NanoBRET Fold Response ([1]; 0.1μM tracer): 0.91; NanoBRET Fold Response ([1]; 1μM tracer): 1.01; NanoBRET Fold Response ([2]; 0.1μM tracer): 1.44; NanoBRET Fold Response ([2]; 1μM tracer): 1.44; NanoBRET Fold Response ([3]; 0.1μM tracer): 0.95; NanoBRET Fold Response ([3]; 1μM tracer): 1.02; NanoBRET Fold Response ([4]; 0.1μM tracer): 0.96; NanoBRET Fold Response ([4]; 1μM tracer): 1.06; NanoBRET Fold Response ([5]; 0.1μM tracer): 0.78; NanoBRET Fold Response ([5]; 1μM tracer): 0.97
CC(C)N(CC[C@H](c1ccccc1)c1cc(CCNC(=O)c2ccc(CNC(=O)CCc3ccc4n3[B-](F)(F)[N+]3=C(c5ccc[nH]5)C=CC3=C4)cc2)ccc1O)C(C)C [Tolterodine-BZ-NB590]	0.97	1.05	0.92	0.87	0.94	0.99	1.03	1.07	0.78	1.02	–
